Source: US20190358214A1, “Compositions and Methods for Treating HCV Infection” (AbbVie Inc., priority 2016, published 2019)

Experiments:
[1] = 4-day repeat dose dog liver biopsy study; assay type: in vivo; settings: Compound 1 dosed orally at 1 mg/kg
Protocol: (§1) This was believed to be attributed to the unique prodrug moiety in Compound 1, which is different from that in sofosbuvir. See paragraphs [0017]. [0018] and [0019] of U.S. patent application Ser. No. 15/254,342. In 4-day repeat dose dog liver biopsy study, Compound 1 dosed orally at 1 mg/kg delivered the similar liver triphosphate levels as sofosbuvir dosed orally at 5 mg/kg. Further modeling provided that 75 mg Compound 1 once daily dosing in human patients would match the liver triphosphate Cmax achieved by 400 mg sofosbuvir once daily dosing, that 80 mg Compound 1 once daily dosing in human patients would match the liver triphosphate AUC0-24 achieved by 400 mg sofosbuvir once daily dosing, and that 16 mg Compound 1 once daily dosing in human patients would maintain Cmin above GT1b polymerase EC50. The model that was used to translate dog study results to human liver pharmacokinetics was validated by sofosbuvir data.

[2] = modeling translating dog study results to human liver pharmacokinetics; settings: modeled from dog study, once daily dosing
Protocol: as §1

[3] = as described in Example 41 of U.S. patent application Ser. No. 15/254,342; cited from earlier work

CCOC(=O)C(C)(C)N[P@](=O)(OC[C@H]1O[C@@H](n2ccc(=O)[nH]c2=O)[C@@](F)(Br)[C@@H]1O)Oc1ccccc1 [Compound 1]
liver triphosphate levels compared with sofosbuvir dosed orally at 5 mg/kg [1]: similar | once daily dose in human patients that would maintain Cmin above GT1b polymerase EC50 [2]: 16 mg | once daily dose in human patients that would match the liver triphosphate AUC0-24 achieved by 400 mg sofosbuvir once daily [2]: 80 mg | once daily dose in human patients that would match the liver triphosphate Cmax achieved by 400 mg sofosbuvir once daily [2]: 75 mg | active triphosphate profiles as compared to sofosbuvir [3]: significantly improved
